How the values were obtained:
4T1-Luc2 tumors = experiment: SPECT/CT tumor necrosis imaging, quantified tumor uptake; type: in vivo, mouse; details: 4T1-Luc2 tumor-bearing mice, 24 h p.i.
Description: (§1) The 4T1-Luc2 cells (1.0 × 10^5) suspended in 15 µL PBS were inoculated bilaterally in 16 mice in four groups of four animals each. Nine days later, the tumor-bearing mice were injected with [^111In]3 (20 MBq, 2 nmol, in 200 µL PBS) into the tail vein, after which imaging was performed at timepoints 6, 24, 48, and 72 h post-injection (p.i.) under isoflurane anesthesia (4% induction, 1.5 to 2% maintenance in 100% O2), whilst maintaining the body temperature constant. First, FLI imaging was performed with a 730 nm excitation and 760 nm emission filter for 400 ms with 4 × 4 binning. Then, the mice received an intraperitoneal injection of D-luciferin (150 mg/kg) maintaining the position of the mice in the bed unaltered, and BLI imaging was performed with an open filter for 400 ms with 4 × 4 binning. Full body (head to tail base) SPECT images of the 5 cm axial field of view were obtained over a total scan time of 30 min, followed by a 2 min full-body CT. After imaging, the mice were euthanized for ex vivo analysis.
Acquired SPECT and PET images were reconstructed using SR-OSEM with 9 iterations and 128 subsets on a 36 × 36 × 35 mm matrix with 0.80 mm isotropic voxels. For the PET images, a decay correction of 109.7 min was applied. The PET and SPECT images were superposed with CT. The images were further analyzed in Pi-Mod. […]

[1] = system: 4T1-Luc2 tumor-bearing mice; experiment: Ex vivo biodistribution in 4T1-Luc2 tumor-bearing mice; design: species or system mouse; details: for Tumor to blood ratio / Tumor to muscle ratio: 4T1-Luc2 tumors; for Blood uptake / Bone marrow uptake / Bone uptake / Brain uptake / Colon uptake / Heart uptake / Kidneys uptake / Liver uptake / Lung uptake / Lymph nodes uptake / Muscle uptake / Pancreas uptake / Skin uptake / Small intestine uptake / Spleen uptake / 4T1-Luc2 Tumors uptake: ±SEM; for Blood uptake / Bone marrow uptake / Bone uptake / Brain uptake / Colon uptake / Heart uptake / Kidneys uptake / Liver uptake / Lung uptake / Lymph nodes uptake / Muscle uptake / Pancreas uptake / Skin uptake / Small intestine uptake / Spleen uptake: n = 4; for 4T1-Luc2 Tumors uptake: n = 8
Description: Female BALB/cAnNRj-nude mice (six to eight weeks old) were housed in ventilated cages in groups of four to six mice and were provided standard laboratory animal food pellets and water ad libitum. One week after arrival, tumor cells were injected bilaterally on the shoulders. Tumor growth was monitored three days per week with a caliper. All groups consisted of four mice with bilateral tumors.
as §1, with “Nine days later, the tumor-bearing mice were injected with [^111In]3 (20 MBq, 2 nmol, in 200 µL PBS) into the tail vein, after which imaging was performed at timepoints 6, 24, 48, and 72 h post-injection (p.i.) under isoflurane anesthesia (4% induction, 1.5 to 2% maintenance in 100% O2), whilst maintaining the body temperature constant.” left out
After the final imaging experiments, the mice were sacrificed by cervical dislocation, tumors and organs were collected, weighted, and activity was accurately quantified by γ-counting to determine radioactivity uptake in the percentage of injected dose per gram (%ID/g). After γ-counting, the tumors were frozen in liquid nitrogen and stored at −80 °C overnight. Adjacent cryosections (10 µm) were prepared of the tumor centers for autoradiography. The sections were stored at −20 °C for the radioactivity to decay, before 800 nm fluorescence imaging and histochemical dead cell staining.

CC1(C)C(=CC=C2CCCC(C=CC3=[N+](CCCCCC(=O)NCCCC[C@H](NC(=O)CCCc4ccc(I)cc4)C(=O)NCc4ccc(CNC(=O)CN5CCN(CC(=O)[O-])CCN(CC(=O)[O-])CCN(CC(=O)[O-])CC5)cc4)c4ccc(S(=O)(=O)O)cc4C3(C)C)=C2Oc2ccc(S(=O)(=O)O)cc2)N(CCCCS(=O)(=O)O)c2ccc(S(=O)(=O)O)cc21.[111In+3] [[^111In]3]
radioactive tumor uptake in the SPECT images (4T1-Luc2 tumors): 3.83 ± 0.19 %ID/mL | excretion route ([1]; 4T1-Luc2 tumor-bearing mice, from biodistribution): predominately excreted via the renal tract | blood half-life ([1]; 4T1-Luc2 tumor-bearing mice, i.v.): 9 h | Tumor to blood ratio ([1]; 6 h p.i.): 0.91±0.05 | Tumor to muscle ratio ([1]; 6 h p.i.): 3.19±0.43 | Blood uptake ([1]; 6 h p.i., i.v.): 4.34±0.22 %ID/g | Bone marrow uptake ([1]; 6 h p.i., i.v.): 1.42±0.87 %ID/g | Bone uptake ([1]; 6 h p.i., i.v.): 1.63±0.16 %ID/g | Brain uptake ([1]; 6 h p.i., i.v.): 0.14±0.03 %ID/g | Colon uptake ([1]; 6 h p.i., i.v.): 1.60±0.13 %ID/g | Heart uptake ([1]; 6 h p.i., i.v.): 2.32±0.11 %ID/g | Kidneys uptake ([1]; 6 h p.i., i.v.): 6.04±1.13 %ID/g | Liver uptake ([1]; 6 h p.i., i.v.): 2.24±0.28 %ID/g | Lung uptake ([1]; 6 h p.i., i.v.): 3.29±0.25 %ID/g | Lymph nodes uptake ([1]; 6 h p.i., i.v.): 3.91±0.97 %ID/g | Muscle uptake ([1]; 6 h p.i., i.v.): 1.31±0.20 %ID/g | Pancreas uptake ([1]; 6 h p.i., i.v.): 1.33±0.13 %ID/g | Skin uptake ([1]; 6 h p.i., i.v.): 2.59±0.09 %ID/g | Small intestine uptake ([1]; 6 h p.i., i.v.): 0.93±0.07 %ID/g | Spleen uptake ([1]; 6 h p.i., i.v.): 1.87±0.18 %ID/g | 4T1-Luc2 Tumors uptake ([1]; 6 h p.i., i.v.): 3.94±0.19 %ID/g | Tumor to blood ratio ([1]; 24 h p.i.): 2.50 ± 0.20 | Tumor to muscle ratio ([1]; 24 h p.i.): 7.26±0.89 | Blood uptake ([1]; 24 h p.i., i.v.): 1.31±0.05 %ID/g | Bone uptake ([1]; 24 h p.i., i.v.): 0.93±0.13 %ID/g | Brain uptake ([1]; 24 h p.i., i.v.): 0.07±0.00 %ID/g | Colon uptake ([1]; 24 h p.i., i.v.): 0.70±0.07 %ID/g | Heart uptake ([1]; 24 h p.i., i.v.): 1.22±0.06 %ID/g | Liver uptake ([1]; 24 h p.i., i.v.): 1.20±0.01 %ID/g | Lung uptake ([1]; 24 h p.i., i.v.): 1.20±0.04 %ID/g | Lymph nodes uptake ([1]; 24 h p.i., i.v.): 2.42±0.18 %ID/g | Muscle uptake ([1]; 24 h p.i., i.v.): 0.46±0.03 %ID/g | Pancreas uptake ([1]; 24 h p.i., i.v.): 0.65±0.05 %ID/g | Skin uptake ([1]; 24 h p.i., i.v.): 1.83±0.29 %ID/g | Small intestine uptake ([1]; 24 h p.i., i.v.): 0.53±0.05 %ID/g | Spleen uptake ([1]; 24 h p.i., i.v.): 1.45±0.03 %ID/g | 4T1-Luc2 Tumors uptake ([1]; 24 h p.i., i.v.): 3.27±0.25 %ID/g | Tumor to blood ratio ([1]; 48 h p.i.): 4.54±0.45 | Tumor to muscle ratio ([1]; 48 h p.i.): 7.27±0.34 | Blood uptake ([1]; 48 h p.i., i.v.): 0.58±0.01 %ID/g | Bone uptake ([1]; 48 h p.i., i.v.): 0.74±0.04 %ID/g | Brain uptake ([1]; 48 h p.i., i.v.): 0.04±0.00 %ID/g | Colon uptake ([1]; 48 h p.i., i.v.): 0.37±0.02 %ID/g | Heart uptake ([1]; 48 h p.i., i.v.): 0.78±0.01 %ID/g | Kidneys uptake ([1]; 48 h p.i., i.v.): 8.31±0.96 %ID/g | Liver uptake ([1]; 48 h p.i., i.v.): 0.90±0.04 %ID/g | Lung uptake ([1]; 48 h p.i., i.v.): 0.76±0.03 %ID/g | Lymph nodes uptake ([1]; 48 h p.i., i.v.): 3.30±0.62 %ID/g | Muscle uptake ([1]; 48 h p.i., i.v.): 0.36±0.03 %ID/g | Pancreas uptake ([1]; 48 h p.i., i.v.): 0.48±0.04 %ID/g | Skin uptake ([1]; 48 h p.i., i.v.): 1.46±0.03 %ID/g | Small intestine uptake ([1]; 48 h p.i., i.v.): 0.33±0.01 %ID/g | Spleen uptake ([1]; 48 h p.i., i.v.): 1.19±0.07 %ID/g | 4T1-Luc2 Tumors uptake ([1]; 48 h p.i., i.v.): 2.62±0.23 %ID/g | Tumor to blood ratio ([1]; 72 h p.i.): 7.36±0.93 | Tumor to muscle ratio ([1]; 72 h p.i.): 9.10±1.58 | Blood uptake ([1]; 72 h p.i., i.v.): 0.31±0.03 %ID/g | Bone marrow uptake ([1]; 72 h p.i., i.v.): 2.25±0.65 %ID/g | Bone uptake ([1]; 72 h p.i., i.v.): 0.51±0.05 %ID/g | Brain uptake ([1]; 72 h p.i., i.v.): 0.03±0.00 %ID/g | Colon uptake ([1]; 72 h p.i., i.v.): 0.23±0.02 %ID/g | Heart uptake ([1]; 72 h p.i., i.v.): 0.63±0.02 %ID/g | Kidneys uptake ([1]; 72 h p.i., i.v.): 5.72±0.49 %ID/g | Liver uptake ([1]; 72 h p.i., i.v.): 0.83±0.04 %ID/g | Lung uptake ([1]; 72 h p.i., i.v.): 0.56±0.05 %ID/g | Lymph nodes uptake ([1]; 72 h p.i., i.v.): 2.39±0.25 %ID/g | Muscle uptake ([1]; 72 h p.i., i.v.): 0.26±0.03 %ID/g | Pancreas uptake ([1]; 72 h p.i., i.v.): 0.32±0.02 %ID/g | Skin uptake ([1]; 72 h p.i., i.v.): 1.52±0.09 %ID/g | Small intestine uptake ([1]; 72 h p.i., i.v.): 0.20±0.02 %ID/g | Spleen uptake ([1]; 72 h p.i., i.v.): 1.10±0.18 %ID/g | 4T1-Luc2 Tumors uptake ([1]; 72 h p.i., i.v.): 2.25±0.64 %ID/g | ex vivo colocalization with dead cells (autoradiography, NIR fluorescence, TUNEL) ([1]; adjacent sections of 4T1-Luc2 tumors): specific binding of the tracer to necrotic tumor regions
